Consider 77 sequences from the OligoGym collection.

After the bases stand the sugars from the 5' end (letter, count) and the backbone: PS all phosphorothioate, else s phosphorothioate and o phosphodiester by linkage. Methylation of C is not given here. e = 2'-O-(2-methoxyethyl) (MOE); k = constrained ethyl (cEt); d = 2'-deoxy (DNA); m = 2'-O-methyl

The data set deals with HSD17B13. Conditions: ASO, HepaRG.

“TTATGTAATAGCCAGT (sugars k3 d1 m1 d8 k3, PS)”: the target mRNA inhibition (1 µM) came to 56%.

In the case of “GTATGTTTATGTAAGC (sugars k3 d1 m1 d8 k3, PS)”, the target mRNA inhibition is 0% (0.02 µM); 0% (0.078 µM); 10% (0.313 µM); 66% (1 µM); 72% (1.25 µM); 90% (5 µM). CCTATATACATCCAAG (sugars k3 d10 k3, PS) came in with a target mRNA inhibition (1 µM) of 53%. Turning to GAGACATGAGGTTTTG (sugars k3 d10 k3, PS), the target mRNA inhibition (0.02 µM) came to 0%; the target mRNA inhibition (0.078 µM) was determined as 0%; the target mRNA inhibition (0.313 µM) came out at 22%; the target mRNA inhibition (1 µM) was found to be 77%; the target mRNA inhibition (1.25 µM) came out at 65%; the target mRNA inhibition (5 µM) was 88%. For the sequence TATCAGAAACTTATAC (sugars k3 d10 k3, PS), the target mRNA inhibition (1 µM) was found to be 0%.

With “GAATAGCAAGCCAACA (sugars k3 d9 k3 e1, PS)”, for the setting “1 µM”, the target mRNA inhibition came to 30%. The same measure, in the same setting: in the case of CTGGTAAAGGTAAGGG (sugars k3 d10 k3, PS) it was 58%; in that of AGGGAATTTATCAAAC (sugars k3 d10 k3, PS), 47%; in that of “CTAAAATTGTCTAAAC (sugars kkdddddddddkekek, PS)”, 19%. The sequence GTAATCACAAGTAAGG (sugars k3 d10 k3, PS) had a target mRNA inhibition (0.02 µM) of 0%; a target mRNA inhibition (0.078 µM) of 12%; a target mRNA inhibition (0.313 µM) of 32%; a target mRNA inhibition (1 µM) of 70%; a target mRNA inhibition (1.25 µM) of 70%; a target mRNA inhibition (5 µM) of 93%. Regarding AACCTTCCCTGTGTAA (sugars k3 d10 k3, PS), the target mRNA inhibition (1 µM) was determined as 38%. On the same count and under the same terms, in the case of ATGCATTAAAACTCTC (sugars k3 d10 k3, PS) it was 12%. Regarding TATACTGTCCCAGCAT (sugars k3 d10 k3, PS), under “1 µM”, the target mRNA inhibition is 40%. As for “CAGAUTGGAATGCTAC (sugars k3 d1 m1 d8 k3, PS)”, the target mRNA inhibition reads like this: (0.02 µM) 7%; (0.078 µM) 25%; (0.313 µM) 42%; (1 µM) 70%; (1.25 µM) 56%; (5 µM) 82%. For the sequence TCTAAACTAGTGGTAA (sugars k3 d10 k3, PS), under “1 µM”, the target mRNA inhibition is 24%.

ACCATAGGACATGGAG (sugars k3 d10 k3, PS): under “1 µM”, the target mRNA inhibition came to 62%. Still for that read-out and setting: as for “GCTCCATAATAATAGC (sugars kkdddddddddkekek, PS)”, the figure is 15%. “CTTAUGTAATAGCCAG (sugars k3 d1 m1 d8 k3, PS)” returned a target mRNA inhibition (0.02 µM) of 0%; a target mRNA inhibition (0.078 µM) of 0%; a target mRNA inhibition (0.313 µM) of 34%; a target mRNA inhibition (1 µM) of 75%; a target mRNA inhibition (1.25 µM) of 65%; a target mRNA inhibition (5 µM) of 91%. In turn, “ATACATTAGCAAGCTA (sugars kkdddddddddkekek, PS)” showed a target mRNA inhibition (1 µM) of 22%. On the same count and under the same terms, in the case of CTGCTAGTGCCAAACC (sugars k3 d10 k3, PS) it was 74%; in that of “TAAACCTTCCCTGTGT (sugars kkdddddddddkekek, PS)”, 9%. On the same count and under the same terms, in the case of TGGCCTTACCAGAATT (sugars k3 d10 k3, PS) it was 46%; in that of “GAAACTTGATCTCTTA (sugars k3 d1 m1 d8 k3, PS)”, 59%. On the same count and under the same terms, in the case of ATCTCACAAGGGAAAT (sugars k3 d10 k3, PS) it was 73%; in that of GCTAGGGAAATCTTTC (sugars k3 d10 k3, PS), 66%. In turn, ATTATGTGATTGAGTT (sugars k3 d10 k3, PS) returned a target mRNA inhibition (1 µM) of 46%. Same read-out and setting: as for “GTTATTCTCTTGACAA (sugars kkdddddddddkekek, PS)”, the figure is 27%; as for CCAAGGCTTATGAAGT (sugars k3 d10 k3, PS), 27%.

Under “1 µM”, CACTCAGCTGCAGTTT (sugars k3 d10 k3, PS) registered a target mRNA inhibition of 13%. The same measure, in the same setting: as for GGTAGCTTTTGTCCAC (sugars k3 d10 k3, PS), the figure is 66%.

For the sequence TCTCTTAGCTGTGCAC (sugars k3 d10 k3, PS), the target mRNA inhibition came to 15% (0.02 µM); 30% (0.078 µM); 52% (0.313 µM); 79% (1 µM); 74% (1.25 µM); 89% (5 µM). Sequence CATATTCCCTGATGAT (sugars k3 d10 k3, PS) displayed a target mRNA inhibition (1 µM) of 14%. Sequence “TGTTGATATTCTGTGG (sugars kkdddddddddkekek, PS)” came in with a target mRNA inhibition (1 µM) of 54%.

For the setting “1 µM”, ATGTCCTAGGATGTTG (sugars k3 d10 k3, PS) registered a target mRNA inhibition of 50%. On the same count and under the same terms, as for TCGGCACTCAGCTGCA (sugars k3 d10 k3, PS), the figure is 52%. On the same count and under the same terms, as for TGAGGTTTTGATACCA (sugars k3 d10 k3, PS), the figure is 63%. On the same count and under the same terms, as for ATTCGAAACTATTCAT (sugars k3 d10 k3, PS), the figure is 24%. Regarding GTTTCCTCCACACCGC (sugars k3 d10 k3, PS), under “1 µM”, the target mRNA inhibition is 45%.

“ACAGTAAAATTATGCC (sugars k3 d9 k3 e1, PS)” registered a target mRNA inhibition (1 µM) of 62%. Still for that read-out and setting: in the case of AAGAGCTGGTAAAGGT (sugars k3 d10 k3, PS) it was 47%; in that of AAAAGACTTTGAGACT (sugars k3 d10 k3, PS), 32%. Still for that read-out and setting: as for CCATGGATCTAGAACA (sugars k3 d10 k3, PS), the figure is 15%. The same measure, in the same setting: in the case of AAAAAAGCTTATCGAG (sugars k3 d10 k3, PS) it was 7%; in that of GCATTATTCACCACGA (sugars k3 d10 k3, PS), 59%. On to “TCTTAAACCTTCCCTG (sugars kkdddddddddkekek, PS)”, for which the target mRNA inhibition (1 µM) amounted to 24%. The sequence TATACTAGGATTAGAA (sugars k3 d10 k3, PS) came in with a target mRNA inhibition (1 µM) of 2%. Still for that read-out and setting: as for GATACACCAATGCAGT (sugars k3 d10 k3, PS), the figure is 73%. In turn, CGGTCACCTTTCATAA (sugars k3 d10 k3, PS) gave a target mRNA inhibition (1 µM) of 69%. Same read-out and setting: as for GAGAAGGCGGTATCAT (sugars k3 d10 k3, PS), the figure is 48%. Still for that read-out and setting: as for AAACAAGAGGATAGTC (sugars k3 d10 k3, PS), the figure is 48%.

Turning to TTCAGTTAGCAGCTAA (sugars k3 d10 k3, PS), the target mRNA inhibition was determined as 0% (0.02 µM); 0% (0.078 µM); 26% (0.313 µM); 72% (1 µM); 63% (1.25 µM); 82% (5 µM). Take AGAGGCAAGGATACCT (sugars k3 d10 k3, PS): the target mRNA inhibition runs as follows: (0.02 µM) 5%; (0.078 µM) 7%; (0.313 µM) 39%; (1 µM) 78%; (1.25 µM) 68%; (5 µM) 40%.

In the case of GAATAGAGTTGCACCG (sugars k3 d10 k3, PS), the target mRNA inhibition (1 µM) was found to be 55%.

In turn, AAGTTAATAGGACTAA (sugars k3 d10 k3, PS) showed a target mRNA inhibition (1 µM) of 17%.

Sequence ACTACTTCAGTTAGCA (sugars k3 d10 k3, PS) yielded a target mRNA inhibition (1 µM) of 79%. Same read-out and setting: as for CCATAATCTGTGATTA (sugars k3 d10 k3, PS), the figure is 9%.

Take ACTTCTTACGACTTCA (sugars k3 d10 k3, PS): under “1 µM”, the target mRNA inhibition came out at 43%.

The sequence CCCAAGGCCTGAAGTT (sugars k3 d10 k3, PS) yielded a target mRNA inhibition (1 µM) of 61%. The same measure, in the same setting: as for “CAGATTATTATGTGAT (sugars kkdddddddddkekek, PS)”, the figure is 31%. Same read-out and setting: in the case of TCCAAGGAGTGCATCT (sugars k3 d10 k3, PS) it was 46%; in that of “GAATAGCAAGCCAACA (sugars kkdddddddddkekek, PS)”, 27%; in that of “GCACCGTTTTGGGCTA (sugars k3 d1 m1 d8 k3, PS)”, 67%. In the case of TAAAAATTGGCCTCCT (sugars k3 d10 k3, PS), the target mRNA inhibition (1 µM) is 29%.

Under “1 µM”, GTTTCTAGGTCAGTAG (sugars k3 d10 k3, PS) had a target mRNA inhibition of 73%. The same measure, in the same setting: in the case of CACTGCCAGATTGCAC (sugars k3 d10 k3, PS) it was 38%; in that of TCCCAACCCAAGCTAC (sugars k3 d10 k3, PS), 8%; in that of TTATCATACCACATAC (sugars k3 d10 k3, PS), 19%. The same measure, in the same setting: in the case of AACTCCGTTATAAGTT (sugars k3 d10 k3, PS) it was 11%.

In turn, TGTAAAGGCTGGGTGA (sugars k3 d10 k3, PS) yielded a target mRNA inhibition (1 µM) of 26%. Same read-out and setting: in the case of GCTTAAATGTTTAACC (sugars k3 d10 k3, PS) it was 67%; in that of CGTTATAAGTTTCATG (sugars k3 d10 k3, PS), 33%.

Take CCTGAAAAGCCCTATT (sugars k3 d10 k3, PS): the target mRNA inhibition (1 µM) was found to be 0%.

TCCAATTTAAATCAGG (sugars k3 d10 k3, PS) yielded a target mRNA inhibition (1 µM) of 61%. In turn, CTGTGTTAGCTTTAAT (sugars k3 d10 k3, PS) displayed a target mRNA inhibition (0.02 µM) of 9%; a target mRNA inhibition (0.078 µM) of 0%; a target mRNA inhibition (0.313 µM) of 28%; a target mRNA inhibition (1 µM) of 67%; a target mRNA inhibition (1.25 µM) of 77%; a target mRNA inhibition (5 µM) of 92%. In turn, CTTAACAAACCTCCAC (sugars k3 d10 k3, PS) had a target mRNA inhibition (1 µM) of 3%. Still for that read-out and setting: in the case of TTTTAACTACCCTCAC (sugars k3 d10 k3, PS) it was 2%; in that of “CAAAAGACTTTGAGAC (sugars k3 d1 m1 d8 k3, PS)”, 25%.
